Assay results reported in paper PMC5404560, “Towards Selective Mycobacterial ClpP1P2 Inhibitors with Reduced Activity against the Human Proteasome” (Antimicrobial Agents and Chemotherapy, 2017).
Converted amounts (≈) assume the structure as drawn. Where two headings read alike, the source gives them in different places. Marks after values point to notes of the source that are not given here.

Assays:
[1] = MTS cytotoxicity assay, HepG2; format: cell-based, human; settings: human; MTS assay; read-out: GI50, HepG2 cells
Method: (§1) The MTS (Promega) reduction assay was used according to manufacturer's guidelines to assess Vero (ATCC […]) and HepG2 (ATCC HB-8065) cell viability. […] Carbonyl cyanide m-chlorophenylhydrazone (CCCP) was used as a cytotoxic positive control. Cytotoxicity was determined twice in independent experiments.

HepG2 cells = assay: MTS cytotoxicity assay, HepG2; format: cell-based, human; settings: fold higher
Method: as §1

ClpP1P2 = ClpP1P2 (Mycolicibacterium smegmatis, UniProt A0R197+A0R198); assay: ClpP1P2 inhibition whole-cell RFP-SsrA reporter assay
Proteinase K = target: T1, Proteinase K (Parengyodontium album, UniProt P06873); assay: Protease panel: Proteinase K; format: biochemical
T1 construct: Reaction Biology Corporation (contract testing)
Method: (§3) Protease panel testing was carried out by Reaction Biology Corporation.

[2] = Plasma protein binding, human; format: in vitro ADME; settings: bound, read-out: Plasma protein binding in humans (%) (converted)
Method: (§2) A parallel artificial-membrane permeability assay (PAMPA) and mouse liver microsome (MLM), human liver microsome (HLM), aqueous solubility, Log D, protein binding, and cytochrome P450 2D6 and 3A4 assays were carried out at Piramal Pharma Solutions.

M. tuberculosis = assay: Bactericidal activity (MBC99.9); format: cell-based; settings: Mycobacterium tuberculosis; concentration required to kill 99.9% of the bacterial population
[3] = Intravenous/oral pharmacokinetics and tissue distribution in mice; format: in vivo; settings: for Vd: 10 mg/kg
Method: Female ICR mice (aged ∼6 to ∼8 weeks; 3 animals per time point) were used for all studies. Studies were performed as per approved internal protocols for animal care and use. Doses were administered as clear solutions in 50% polyethylene glycol 400 (PEG400) plus […] (D5W). Animals were sacrificed by overdose of CO2, and blood was collected through cardiac puncture at 5 min (10 min per os [p.o.]), 30 min, and 1, 2, 4, 8, 16, and 24 h after administration in tubes containing K3 EDTA as an anticoagulant. The samples were centrifuged, and the plasma was separated and stored at −70°C until analysis. Plasma samples were processed and analyzed by LC-tandem MS. Pharmacokinetic parameters were estimated by noncompartmental methods using WinNonlin (version 5.2; Pharsight, CA).

Kallikrein 7 = Kallikrein 7 (Homo sapiens, UniProt P49862); assay: Protease panel: Kallikrein 7; format: biochemical; settings: Table 6; 10-dose response, top 10 μM
Method: as §3

Log D (octanol/PBS) = format: physicochemical; settings: pH 7.4, read-out: Log D (measured at pH 7.4)
Method: as §2

[4] = Plasma protein binding, mouse; format: in vitro ADME; settings: bound, read-out: Plasma protein binding in mice (%) (converted)
Method: as §2

panel of 62 proteases = assay: Protease selectivity panel, overall; format: biochemical
Method: as §3

HepG2 proteasome = HepG2 proteasome (Homo sapiens, UniProt P20618+P28074); assay: Cell-based proteasome CT-like peptidase inhibition assay (Proteasome-Glo)
Method: A cell-based CT-like peptidase assay was performed using the Proteasome-Glo cell-based assay reagent (Promega) according to the manufacturer's guidelines. Briefly, HepG2 cells (10^4 cells/well) were treated with the compounds indicated in the figures for 2 h, followed by incubation with the luminescent substrate for 10 min. Luminescence was detected with a Tecan M200 Pro plate reader.

[5] = Thermodynamic aqueous solubility; format: physicochemical; settings: thermodynamic from solid
Method: as §2

CYP450 2D6 = target: T2, CYP450 2D6 (Homo sapiens, UniProt P10635); assay: Recombinant cytochrome P450 enzyme assay, 2D6; format: in vitro ADME; settings: highest concentration tested 10 μM
T2 construct: Piramal Pharma Solutions (contract laboratory)
Method: as §2

M. smegmatis ΔprcAB = format: cell-based
CYP450 3A4 = target: T3, CYP450 3A4 (Homo sapiens, UniProt P08684); assay: Recombinant cytochrome P450 enzyme assay, 3A4; format: in vitro ADME; settings: highest concentration tested 10 μM
T3 construct: Piramal Pharma Solutions (contract laboratory)
Method: as §2

[6] = MTS cytotoxicity assay, Vero; format: cell-based; settings: African green monkey; MTS assay; read-out: GI50, Vero cells
Method: as §1

Vero cells = assay: MTS cytotoxicity assay, Vero; format: cell-based; settings: fold higher
Method: as §1

M. tuberculosis H37Rv = assay: microbe, parasite or virus in culture; format: cell-based
Kallikrein 1 = Kallikrein 1 (Homo sapiens, UniProt P06870); assay: Protease panel: Kallikrein 1; format: biochemical; settings: Table 6; 10-dose response, top 10 μM
Method: as §3

[7] = Human liver microsome stability; format: in vitro ADME; settings: liver microsomes, read-out: HLM t1/2
Method: as §2

Mycobacterium bovis BCG = assay: microbe, parasite or virus in culture; format: cell-based; settings: Mycobacterium tuberculosis variant bovis BCG, read-out: MIC50 for Mycobacterium bovis BCG
[8] = Parallel artificial-membrane permeability assay (PAMPA); format: in vitro ADME; settings: read-out: PAMPA Pe
Method: as §2

T1 sequence (P06873 106-384): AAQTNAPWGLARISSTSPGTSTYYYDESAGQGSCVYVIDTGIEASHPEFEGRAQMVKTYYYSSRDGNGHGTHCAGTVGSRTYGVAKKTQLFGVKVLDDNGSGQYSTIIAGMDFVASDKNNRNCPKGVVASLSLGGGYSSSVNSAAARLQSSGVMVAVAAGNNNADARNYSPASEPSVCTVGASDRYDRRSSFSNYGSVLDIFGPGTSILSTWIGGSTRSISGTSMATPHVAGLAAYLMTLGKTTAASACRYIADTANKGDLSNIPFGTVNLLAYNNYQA
Chain of ClpP1P2 (A0R198 4-203): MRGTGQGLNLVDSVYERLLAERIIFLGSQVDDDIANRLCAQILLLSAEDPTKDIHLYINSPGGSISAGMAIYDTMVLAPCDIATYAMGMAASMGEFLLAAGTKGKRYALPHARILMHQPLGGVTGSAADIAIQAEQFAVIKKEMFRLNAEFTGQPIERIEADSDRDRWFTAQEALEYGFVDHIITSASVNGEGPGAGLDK
Chain of ClpP1P2 (A0R197 17-218): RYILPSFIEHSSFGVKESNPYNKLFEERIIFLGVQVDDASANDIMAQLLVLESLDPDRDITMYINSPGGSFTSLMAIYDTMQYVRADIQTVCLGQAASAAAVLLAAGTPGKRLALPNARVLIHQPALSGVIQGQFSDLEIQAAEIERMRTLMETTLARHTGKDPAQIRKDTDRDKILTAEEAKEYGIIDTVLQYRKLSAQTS
T2 sequence (P10635 whole entry): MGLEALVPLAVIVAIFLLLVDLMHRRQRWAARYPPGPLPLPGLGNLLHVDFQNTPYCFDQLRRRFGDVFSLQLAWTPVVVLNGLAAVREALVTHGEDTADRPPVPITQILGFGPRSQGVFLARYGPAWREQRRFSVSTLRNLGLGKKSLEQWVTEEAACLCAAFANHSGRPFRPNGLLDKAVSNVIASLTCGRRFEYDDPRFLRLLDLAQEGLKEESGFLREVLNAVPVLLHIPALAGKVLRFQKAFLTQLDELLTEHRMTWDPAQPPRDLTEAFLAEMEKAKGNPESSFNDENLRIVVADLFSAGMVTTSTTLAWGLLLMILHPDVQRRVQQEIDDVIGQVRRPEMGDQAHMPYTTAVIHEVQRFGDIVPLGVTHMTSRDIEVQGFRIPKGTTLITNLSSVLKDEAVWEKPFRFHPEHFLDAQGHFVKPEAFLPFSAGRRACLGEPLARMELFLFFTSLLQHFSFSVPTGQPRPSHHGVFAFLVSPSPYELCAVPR
Chain of Kallikrein 1 (P06870 25-262, species assumed): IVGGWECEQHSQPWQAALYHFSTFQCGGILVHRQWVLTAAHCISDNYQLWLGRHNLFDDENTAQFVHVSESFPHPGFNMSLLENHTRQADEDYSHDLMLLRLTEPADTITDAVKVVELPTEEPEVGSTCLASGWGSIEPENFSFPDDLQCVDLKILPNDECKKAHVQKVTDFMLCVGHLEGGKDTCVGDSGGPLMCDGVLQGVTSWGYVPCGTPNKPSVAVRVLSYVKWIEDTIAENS
Chain of Kallikrein 7 (P49862 30-253, species assumed): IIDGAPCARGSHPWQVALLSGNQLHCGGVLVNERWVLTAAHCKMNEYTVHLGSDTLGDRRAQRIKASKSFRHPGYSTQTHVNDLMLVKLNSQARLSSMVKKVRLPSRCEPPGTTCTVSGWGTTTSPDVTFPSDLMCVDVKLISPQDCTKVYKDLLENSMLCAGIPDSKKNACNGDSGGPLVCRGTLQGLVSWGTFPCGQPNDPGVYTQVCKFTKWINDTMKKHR
T3 sequence (P08684 whole entry): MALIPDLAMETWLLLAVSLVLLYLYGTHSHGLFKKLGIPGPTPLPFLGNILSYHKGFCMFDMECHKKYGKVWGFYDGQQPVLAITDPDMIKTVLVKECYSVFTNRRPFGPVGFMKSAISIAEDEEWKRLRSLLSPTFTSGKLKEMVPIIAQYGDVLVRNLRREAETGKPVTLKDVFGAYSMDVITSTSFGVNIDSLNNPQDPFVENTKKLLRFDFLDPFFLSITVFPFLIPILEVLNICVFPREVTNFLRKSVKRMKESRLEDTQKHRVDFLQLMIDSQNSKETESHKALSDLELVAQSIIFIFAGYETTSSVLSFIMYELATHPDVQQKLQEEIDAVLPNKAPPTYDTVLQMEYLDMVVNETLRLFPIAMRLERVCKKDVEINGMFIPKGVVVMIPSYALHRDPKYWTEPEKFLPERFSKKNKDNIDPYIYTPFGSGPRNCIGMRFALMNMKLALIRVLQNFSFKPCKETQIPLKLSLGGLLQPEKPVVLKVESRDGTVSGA

## O=C(N[C@@H](Cc1ccccn1)C(=O)N[C@@H](CCc1ccccc1)B(O)O)c1cnccn1 [Compound 58, ((R)-3-phenyl-1-((S)-2-(pyrazine-2-carboxamido)-3-(pyridin-2-yl)propanamido)propyl)boronic acid]
[1]
  GI50: 500 µM
HepG2 cells
  GI50 relative to M. tuberculosis growth-inhibitory potency, HepG2: 200 fold
ClpP1P2; M. smegmatis ΔprcAB IC50 (μM) for ClpP1P2, whole-cell RFP-SsrA reporter, 3 h incubation
  IC50: 1.5 ± 0.5 µM
ClpP1P2; M. smegmatis ΔprcAB reporter
  improvement of ClpP1P2 potency compared to compound 1: 4 fold
Proteinase K; Table 6, 10-dose response, top 10 μM
  IC50: 0.35 µM
Proteinase K; supplement panel table, test and control compound
  IC50: 0.352 µM
[2]
  fraction unbound: 0.109
M. tuberculosis
  MBC: 50 µM (≈ 21.7 µg/mL)
[3]; 10 mg/kg i.v.
  abnormal clinical signs for up to 24 h after injection: No abnormal clinical signs were observed
  acute side effects during tail vein injection: No acute side effects were observed
  time concentrations remained above anti-M. tuberculosis MIC50: approximately 4 h
[3]; 10 mg/kg i.v., plasma
  maximum concentration: 32.7 µM
[3]; 100 mg/kg p.o., brain
  AUC0–t(last) in brain: 286 ng·h/g
[3]; 100 mg/kg p.o., lung
  AUC0–t(last) in lung: 16,253 ng · h/g
[3]; female, ICR, mouse, iv, 10 mg/kg i.v., plasma, read-out: C0 (maximum concentration)
  C0: 14200 ng/mL
[3]; female, ICR, mouse, plasma, iv, 10 mg/kg i.v., read-out: AUC0-inf
  AUC(0-inf): 21100 ng·h/mL
[3]; female, ICR, mouse, plasma, iv, 10 mg/kg i.v., read-out: AUC0-t(last)
  AUC(0-t): 20800 ng·h/mL
[3]; female, ICR, mouse, plasma, iv, 10 mg/kg i.v., read-out: CL (systemic plasma clearance) (converted)
  clearance: 8.33 mL/min/kg
[3]; female, ICR, mouse, plasma, iv, 10 mg/kg i.v., read-out: T½ (elimination half-life) (converted)
  half-life: 222 min
[3]; female, ICR, mouse, plasma, iv, 10 mg/kg i.v., read-out: Vss
  Vd: 2.1 L/kg
[3]; female, ICR, mouse, plasma, iv, 10 mg/kg i.v., read-out: Vz
  Vd: 2.5 L/kg
[3]; female, ICR, mouse, plasma, lung, brain, po, 100 mg/kg p.o., read-out: Tmax (converted)
  Tmax: 10 min
[3]; female, ICR, mouse, plasma, oral, 10 mg/kg p.o. vs 10 mg/kg i.v., read-out: F (absolute oral bioavailability)
  bioavailability: 14%
[3]; female, ICR, mouse, plasma, po, 10 mg/kg p.o., read-out: AUC0-inf
  AUC(0-inf): 2870 ng·h/mL
[3]; female, ICR, mouse, plasma, po, 10 mg/kg p.o., read-out: AUC0-t(last)
  AUC(0-t): 2840 ng·h/mL
[3]; female, ICR, mouse, plasma, po, 10 mg/kg p.o., read-out: Tmax (converted)
  Tmax: 30 min
[3]; female, ICR, mouse, plasma, po, 10 mg/kg p.o., read-out: T½ (converted)
  half-life: 234 min
[3]; female, ICR, mouse, po, 10 mg/kg p.o., plasma, read-out: Cmax
  Cmax: 798 ng/mL
[3]; female, ICR, mouse, po, 100 mg/kg p.o., brain, Fig. 10B, read-out: AUC0-inf, Brain
  AUC(0-inf): 378 ng·h/mL
[3]; female, ICR, mouse, po, 100 mg/kg p.o., brain, Fig. 10B, read-out: AUC0-t(last), Brain
  AUC(0-t): 286 ng·h/mL
[3]; female, ICR, mouse, po, 100 mg/kg p.o., brain, read-out: Cmax in brain
  Cmax: 93 ng/g
[3]; female, ICR, mouse, po, 100 mg/kg p.o., brain, read-out: Tmax, Brain
  Tmax: 12 min
[3]; female, ICR, mouse, po, 100 mg/kg p.o., brain, read-out: T½, Brain (converted)
  half-life: 12 min
[3]; female, ICR, mouse, po, 100 mg/kg p.o., lung, Fig. 10B, read-out: AUC0-inf, Lung
  AUC(0-inf): 17000 ng·h/mL
[3]; female, ICR, mouse, po, 100 mg/kg p.o., lung, Fig. 10B, read-out: AUC0-t(last), Lung
  AUC(0-t): 16300 ng·h/mL
[3]; female, ICR, mouse, po, 100 mg/kg p.o., lung, read-out: Cmax in lung
  Cmax: 3370 ng/g
[3]; female, ICR, mouse, po, 100 mg/kg p.o., lung, read-out: Tmax, Lung
  Tmax: 12 min
[3]; female, ICR, mouse, po, 100 mg/kg p.o., lung, read-out: T½, Lung (converted)
  half-life: 18 min
[3]; female, ICR, mouse, po, 100 mg/kg p.o., plasma, read-out: AUC0-inf, Plasma
  AUC(0-inf): 23600 ng·h/mL
[3]; female, ICR, mouse, po, 100 mg/kg p.o., plasma, read-out: AUC0-t(last), Plasma
  AUC(0-t): 22800 ng·h/mL
[3]; female, ICR, mouse, po, 100 mg/kg p.o., plasma, read-out: Cmax, Plasma
  Cmax: 6910 ng/mL
[3]; female, ICR, mouse, po, 100 mg/kg p.o., plasma, read-out: Tmax, Plasma
  Tmax: 12 min
[3]; female, ICR, mouse, po, 100 mg/kg p.o., plasma, read-out: T½, Plasma (converted)
  half-life: 12 min
[3]; p.o., plasma Cmax and AUC0–inf at 10 and 100 mg/kg
  Dose linearity: very good
Kallikrein 7
  IC50: 9.31 µM
Log D (octanol/PBS)
  logD: 2.96
[4]
  fraction unbound: 0.0954
Panel of 62 proteases; 2/62
  share of panel of 62 proteases inhibited with a submicromolar IC50: 3%
Panel of 62 proteases; 5/62
  share of panel of 62 proteases inhibited with an IC50 between 1 to 10 μM: 8%
Panel of 62 proteases; top concentration tested 10 μM
  share of panel of 62 proteases against which active (<10 μM): 11%
HepG2 proteasome
  IC50: 0.367 ± 0.103 µM
[5]; aqueous medium at pH 7.4, aqueous buffer, pH 7.4, text, read-out: aqueous solubility
  solubility: > 400 µg/mL
[5]; aqueous solution at pH 4, aqueous buffer, thermodynamic, pH 4, read-out: Aq solubility (μg/ml) at pH 4
  solubility: 422 µg/mL (≈ 973 µM)
[5]; aqueous solution at pH 7.4, aqueous buffer, thermodynamic, pH 7.4, read-out: Aq solubility (μg/ml) at pH 7.4
  solubility: 450 µg/mL (≈ 1040 µM)
CYP450 2D6
  IC50: > 10 µM
M. smegmatis ΔprcAB; 24 h exposure, OD600, concentration inhibiting 50% of growth
  M. smegmatis ΔprcAB MIC50: 2.7 ± 0.5 µM
M. smegmatis ΔprcAB; M. smegmatis ΔprcAB
  improvement of bacterial-growth inhibition compared to compound 1: over 2 fold
CYP450 3A4
  IC50: > 10 µM
[6]
  GI50: 500 µM
Vero cells
  GI50 relative to M. tuberculosis growth-inhibitory potency, Vero: 200 fold
M. tuberculosis H37Rv; 5 days
  MIC50 (μM) against M. tuberculosis H37Rv: 2.5 ± 1.3^b μM
  MIC90 (μM) against M. tuberculosis H37Rv: 6 ± 2.8 µM (≈ 2.6 µg/mL)
M. tuberculosis H37Rv; H37Rv
  MIC90 concentration relative to MIC50 (fold higher): < 3 fold
M. tuberculosis H37Rv; Mycobacterium tuberculosis, H37RV, 120 h, 5 days, read-out: MIC50 (μM) against M. tuberculosis H37Rv
  MIC50: 2.5 µM
M. tuberculosis H37Rv; Mycobacterium tuberculosis, H37RV, 120 h, 5 days, read-out: MIC90 (μM) against M. tuberculosis H37Rv
  MIC90: 6 µM (≈ 2.6 µg/mL)
M. tuberculosis H37Rv; Mycobacterium tuberculosis, H37RV, read-out: MIC50-TB
  MIC50: 1.08 µg/mL
Kallikrein 1
  IC50: 6.03 µM
[7]
  half-life: > 24 min
Mycobacterium bovis BCG
  MIC50: 1.5 µM (≈ 0.65 µg/mL)
[8]
  Papp: 3.5 ×10⁻⁶ cm/s
